For test [1], the system named is U-266 (Plasma Cell Myeloma). Briefly: Bliss excess, mean over the matrix (fraction); higher = more synergy. In short, it runs like this: (§1)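 After 24 hours at 37°C and 5% CO2 in 1536-well plates, cells in DMEM/F12 or RPMI plus 10% FBS received two-drug dose matrices for 72 hours. Viability came from CellTiter-Glo 2.0 luminescence and was scaled as inhibition, anchored at 0 by vehicle wells and at 1 by blank wells. Combination Emax is taken as the second-highest inhibition in the matrix, and Bliss excess as the observed combination effect less EA + EB − EA·EB, with EA and EB the single-agent effects.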

The subject of test [2] is NCI-H211 (Small Cell Lung Carcinoma). The description is as above. In short, it runs like this:
as §1

A further test deals with SK-N-FI (Neuroblastoma). Described as above. In short, it runs like this:
as §1

For test [3], the system named is NCI-H211 (Small Cell Lung Carcinoma). Briefly: combination Emax (second highest fraction inhibited in the dose matrix, 72 h); higher = more inhibition; extreme values may be limits of the assay. In outline: as §1
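For Bliss excess, mean over the matrix in this document: after 72 h of two-drug dosing.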

Regarding `CC(=O)c1c(C)c2cnc(Nc3ccc(N4CCNCC4)cn3)nc2n(C2CCCC2)c1=O` [Palbociclib] + Cn1cnc2c(F)c(Nc3ccc(Br)cc3Cl)c(C(=O)NOCCO)cc21 [Selumetinib] (first compound max 10 µM, 7x7, partner max 10 µM), the Bliss excess was determined as 0.0393 in test [1], 0.0861 in test [2] and 0.016 with SK-N-FI (Neuroblastoma). Moreover, the “combination Emax” value in test [3] worked out at 0.657.
Turning to `COc1nnc2ccc(N3CCC(c4ccc(OCCN5CCN(C)C(=O)[C@H]5C)cc4)CC3)nn12` [AZD5153] + Cn1cnc2c(F)c(Nc3ccc(Br)cc3Cl)c(C(=O)NOCCO)cc21 [Selumetinib] (first compound max 1 µM, 7x7, partner max 10 µM), the Bliss excess in test [1] is 0.0347; in test [2], 0.0477; with SK-N-FI (Neuroblastoma), -0.0386. Besides, the “combination Emax” value in test [3] was found to be 1.
Take `NC1(C(=O)N[C@@H](CCO)c2ccc(Cl)cc2)CCN(c2ncnc3[nH]ccc23)CC1` [Capivasertib] + CCN(CCO)CCCOc1ccc2c(Nc3cc(CC(=O)Nc4cccc(F)c4)[nH]n3)ncnc2c1 [AZD2811] (first compound max 10 µM, 7x7, partner max 1 µM): the Bliss excess in test [1] was -0.105; in test [2], -0.0107; in the test with SK-N-FI (Neuroblastoma), -0.0265. Moreover, the “combination Emax” value in test [3] is 0.944.
On to `NC1(C(=O)N[C@@H](CCO)c2ccc(Cl)cc2)CCN(c2ncnc3[nH]ccc23)CC1` [Capivasertib] + C[C@@H]1COCCN1C2=NC(=NC(=C2)C3(CC3)[S@](=N)(=O)C)C4=C5C=CNC5=NC=C4 [AZD6738] (first compound max 10 µM, 7x7, partner max 10 µM), for which the Bliss excess in test [1] is -0.0793; in test [2] it was 0.0232; in the test on SK-N-FI (Neuroblastoma) it was -0.0529. The “combination Emax” value in test [3] was found to be 0.665.
With `NC1(C(=O)N[C@@H](CCO)c2ccc(Cl)cc2)CCN(c2ncnc3[nH]ccc23)CC1` [Capivasertib] + COc1nnc2ccc(N3CCC(c4ccc(OCCN5CCN(C)C(=O)[C@H]5C)cc4)CC3)nn12 [AZD5153] (first compound max 10 µM, 7x7, partner max 1 µM), the values for the Bliss excess (in test [1]; in test [2]; with SK-N-FI (Neuroblastoma)) were 0.0076, -0.0113 and -0.0019, respectively. For the same compound, the “combination Emax” value in test [3] was determined as 1.
Turning to `CC(=O)c1c(C)c2cnc(Nc3ccc(N4CCNCC4)cn3)nc2n(C2CCCC2)c1=O` [Palbociclib] + CC1(C)CCC(CN2CCN(c3ccc(C(=O)NS(=O)(=O)c4ccc(NCC5CCOCC5)c([N+](=O)[O-])c4)c(Oc4cnc5[nH]ccc5c4)c3)CC2)=C(c2ccc(Cl)cc2)C1 [Venetoclax] (first compound max 10 µM, 7x7, partner max 1 µM), the Bliss excess is -0.116 in test [1], 0.0694 in test [2] and 0.0104 with SK-N-FI (Neuroblastoma). Besides, the “combination Emax” value in test [3] stood at 0.965.
Regarding `COc1nnc2ccc(N3CCC(c4ccc(OCCN5CCN(C)C(=O)[C@H]5C)cc4)CC3)nn12` [AZD5153] + CCN(CCO)CCCOc1ccc2c(Nc3cc(CC(=O)Nc4cccc(F)c4)[nH]n3)ncnc2c1 [AZD2811] (first compound max 1 µM, 7x7, partner max 1 µM), the Bliss excess in test [1] is -0.0763; in test [2], -0.0081; with SK-N-FI (Neuroblastoma), -0.0579. Also, the “combination Emax” value in test [3] was found to be 1.
For `NC1(C(=O)N[C@@H](CCO)c2ccc(Cl)cc2)CCN(c2ncnc3[nH]ccc23)CC1` [Capivasertib] + CC(C)n1c(=O)n(C)c2cnc3cc(F)c(-c4ccc(OCCCN5CCCCC5)nc4)cc3c21 [AZD1390] (first compound max 10 µM, 7x7, partner max 0.3 µM), the Bliss excess was -0.101 in test [1], -0.0294 in test [2] and -0.0588 with SK-N-FI (Neuroblastoma). Also, in test [3], the “combination Emax” value stood at 0.488.
For `COc1nnc2ccc(N3CCC(c4ccc(OCCN5CCN(C)C(=O)[C@H]5C)cc4)CC3)nn12` [AZD5153] + C[C@@H]1COCCN1C2=NC(=NC(=C2)C3(CC3)[S@](=N)(=O)C)C4=C5C=CNC5=NC=C4 [AZD6738] (first compound max 1 µM, 7x7, partner max 10 µM), the Bliss excess in test [1] is -0.079; in test [2], -0.008; with SK-N-FI (Neuroblastoma) it was 0.0549. In addition, the “combination Emax” value in test [3] came out at 1.
The matching figures for `COc1cc2ncnc(Nc3ccc(F)c(Cl)c3)c2cc1OCCCN1CCOCC1` [Gefitinib] + CC(C)n1c(=O)n(C)c2cnc3cc(F)c(-c4ccc(OCCCN5CCCCC5)nc4)cc3c21 [AZD1390] (first compound max 10 µM, 7x7, partner max 0.3 µM): -0.0442, -0.053, -0.0391 and 0.227.
The matching figures for `Cn1cnc2c(F)c(Nc3ccc(Br)cc3Cl)c(C(=O)NOCCO)cc21` [Selumetinib] + CCN(CCO)CCCOc1ccc2c(Nc3cc(CC(=O)Nc4cccc(F)c4)[nH]n3)ncnc2c1 [AZD2811] (first compound max 10 µM, 7x7, partner max 1 µM): 0.0128, -0.0446, 0.0239 and 0.938.
The corresponding values for `Cn1cnc2c(F)c(Nc3ccc(Br)cc3Cl)c(C(=O)NOCCO)cc21` [Selumetinib] + CC(C)n1c(=O)n(C)c2cnc3cc(F)c(-c4ccc(OCCCN5CCCCC5)nc4)cc3c21 [AZD1390] (first compound max 10 µM, 7x7, partner max 0.3 µM) are -0.0413, -0.0015, -0.0208 and 0.239.

Source of the values: the supplement of paper PMC11061612.
